Results published in ChEMBL document CHEMBL4825771 (ACS Med Chem Lett, 2021).

Key:
[1] = Metabolic stability in human liver microsomes assessed as half life measured after 60 mins by LC-MS/MS analysis; format: ADME, Microsome
[2] = Metabolic stability in human liver microsomes assessed as intrinsic clearance measured after 60 mins by LC-MS/MS analysis; format: ADME, Microsome; settings: read-out: CLH
[3] = molecular target: 5-hydroxytryptamine receptor 2A (Homo sapiens, UniProt P28223); test: Displacement of [3H]-ketanserin from human 5-HT2A receptor incubated for 90 mins by scintillation counting analysis
Sequence of 5-hydroxytryptamine receptor 2A (P28223 whole entry): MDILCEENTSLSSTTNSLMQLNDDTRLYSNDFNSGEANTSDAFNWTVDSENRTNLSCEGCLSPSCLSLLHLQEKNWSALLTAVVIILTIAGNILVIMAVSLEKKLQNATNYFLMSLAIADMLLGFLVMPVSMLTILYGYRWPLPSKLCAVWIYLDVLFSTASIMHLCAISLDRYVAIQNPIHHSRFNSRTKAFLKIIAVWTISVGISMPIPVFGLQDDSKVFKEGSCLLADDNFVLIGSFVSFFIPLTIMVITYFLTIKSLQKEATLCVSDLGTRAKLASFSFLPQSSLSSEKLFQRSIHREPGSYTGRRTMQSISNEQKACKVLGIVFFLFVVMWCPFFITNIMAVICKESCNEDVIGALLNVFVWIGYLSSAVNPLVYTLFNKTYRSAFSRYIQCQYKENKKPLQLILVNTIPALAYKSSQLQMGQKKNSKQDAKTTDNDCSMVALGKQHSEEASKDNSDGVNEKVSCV

[2H]C([2H])([2H])N(C([2H])([2H])[2H])C([2H])([2H])C([2H])([2H])c1c[nH]c2cccc(OC(=O)CCCCCCCC/C=C\C/C=C\CCCCC)c12
half-life at 2 µM [1]: 2.23 h | microsomal CLint [2]: 10.4 µL/min/mg | EC50 [3]: 965 nM
